In US20110287045A1, “Enhanced immune response against infections” (priority 2010, published 2011):
Entries after “also recorded” stand apart in the source; their conditions may differ.

How the values were obtained:
[1] = test system: platelets from integrin β3 knockout mice; experiment: Flow cytometry assay of platelet activation, platelets from integrin β3 knockout mice; format: cell-based, mouse; details: β3−/− gel-filtered platelets
Procedure: (§1) Gel-filtered human or mouse platelets were prepared from platelet-rich plasma obtained from blood collected in 0.38% sodium citrate via heart puncture. 1×10^7gel-filtered platelets were incubated under different stimulation conditions at 37° C. for 30 minutes. For in vitro platelet activation, Tat 20 ng/ml, CCL5 10 μg/ml, or control Ad18-66 20 ng/ml were used. To test the role of chemokine receptor CCR3, calcium flux and cAMP in Tat-induced platelet activation, CCR3 inhibitor SB328437 3 nM, calcium flux inhibitor EGTA 100 μM and prostaglandin E1 (PGE1, a cAMP elevator) 5 μM were used separately to treat platelets at 37° C. for 30 minutes before incubation with Tat, CCL5 or control as above. To test the role of β3 integrin, platelets from β3 integrin knock out mice were incubated with Tat, CCL5, thrombin, and control. Treated platelets were then stained with anti-CD154-FITC and anti-CD62P-PE antibody on ice for one hour. Fluorescent-labeled platelets were measured by flow cytometry (FACScan, Becton-Dickinson, Calif.).

platelets = experiment: Inhibitor pre-treatment before agonist-induced platelet activation (flow cytometry); format: cell-based; details: for inhibition of CCL5-induced platelet activation / inhibition of Tat-induced platelet activation: pre-treatment 37° C. 30 minutes, SB328437 3 nM, EGTA 100 μM, PGE1 5 μM; for inhibition of CCL5-induced platelet activation: CCL5 10 μg/ml; for inhibition of Tat-induced platelet activation: Tat 20 ng/ml
Procedure: as §1

integrin αVβ3 = integrin αVβ3 (Homo sapiens, UniProt P05106+P06756); details: read-out: dissociation constants (Kd), integrin αVβ3; cited from earlier work
Sequence of integrin αVβ3 (P06756 31-889 limits assumed): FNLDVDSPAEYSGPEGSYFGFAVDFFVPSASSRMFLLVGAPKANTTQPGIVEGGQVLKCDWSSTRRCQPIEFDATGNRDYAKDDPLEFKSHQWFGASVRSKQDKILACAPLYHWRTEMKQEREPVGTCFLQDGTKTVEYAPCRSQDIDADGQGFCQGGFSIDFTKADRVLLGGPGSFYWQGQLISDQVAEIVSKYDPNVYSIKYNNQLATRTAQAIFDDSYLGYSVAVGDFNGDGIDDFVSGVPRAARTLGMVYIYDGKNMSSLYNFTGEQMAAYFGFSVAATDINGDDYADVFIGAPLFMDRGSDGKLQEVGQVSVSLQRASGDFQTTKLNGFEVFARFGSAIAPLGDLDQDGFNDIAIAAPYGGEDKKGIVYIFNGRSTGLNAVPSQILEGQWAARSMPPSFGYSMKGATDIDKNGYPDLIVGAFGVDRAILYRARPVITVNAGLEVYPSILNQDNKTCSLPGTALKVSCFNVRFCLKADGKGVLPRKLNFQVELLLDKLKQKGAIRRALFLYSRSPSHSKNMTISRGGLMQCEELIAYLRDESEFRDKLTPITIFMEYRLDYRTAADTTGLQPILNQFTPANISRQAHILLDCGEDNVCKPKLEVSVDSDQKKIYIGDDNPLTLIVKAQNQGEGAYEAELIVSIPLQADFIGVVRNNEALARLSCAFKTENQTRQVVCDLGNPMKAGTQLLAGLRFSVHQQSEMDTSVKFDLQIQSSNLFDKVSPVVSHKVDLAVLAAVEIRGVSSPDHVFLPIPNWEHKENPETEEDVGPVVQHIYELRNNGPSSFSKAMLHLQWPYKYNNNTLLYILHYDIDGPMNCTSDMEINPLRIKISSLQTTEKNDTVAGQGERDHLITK
Sequence of integrin αVβ3 (P06756 891-1048 partner limits assumed): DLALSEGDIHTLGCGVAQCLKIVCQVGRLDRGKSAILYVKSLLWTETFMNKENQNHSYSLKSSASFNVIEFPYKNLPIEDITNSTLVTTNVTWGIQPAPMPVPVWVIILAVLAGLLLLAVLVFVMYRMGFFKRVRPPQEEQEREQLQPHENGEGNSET
Sequence of integrin αVβ3 (P05106 27-788): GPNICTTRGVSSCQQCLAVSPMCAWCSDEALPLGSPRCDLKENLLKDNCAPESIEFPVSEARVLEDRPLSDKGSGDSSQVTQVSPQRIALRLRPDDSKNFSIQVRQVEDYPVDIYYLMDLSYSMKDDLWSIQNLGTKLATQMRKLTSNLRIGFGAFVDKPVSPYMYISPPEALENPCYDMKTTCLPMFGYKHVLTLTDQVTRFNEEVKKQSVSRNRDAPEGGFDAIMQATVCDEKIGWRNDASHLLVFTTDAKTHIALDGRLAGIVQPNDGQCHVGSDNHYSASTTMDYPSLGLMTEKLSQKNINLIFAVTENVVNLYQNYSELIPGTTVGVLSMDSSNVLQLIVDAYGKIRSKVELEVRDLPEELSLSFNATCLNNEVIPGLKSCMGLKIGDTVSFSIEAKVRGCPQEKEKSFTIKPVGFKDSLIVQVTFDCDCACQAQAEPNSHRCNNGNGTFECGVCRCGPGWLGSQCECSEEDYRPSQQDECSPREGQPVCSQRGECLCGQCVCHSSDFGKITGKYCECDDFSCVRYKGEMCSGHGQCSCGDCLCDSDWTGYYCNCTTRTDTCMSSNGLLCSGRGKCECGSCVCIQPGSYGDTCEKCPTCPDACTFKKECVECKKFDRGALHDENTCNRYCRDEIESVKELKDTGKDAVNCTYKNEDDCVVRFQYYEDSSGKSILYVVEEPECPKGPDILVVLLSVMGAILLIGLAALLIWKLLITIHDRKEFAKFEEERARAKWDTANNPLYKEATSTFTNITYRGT

| Compound | inhibition of CCL5-induced platelet activation (platelets) | inhibition of Tat-induced platelet activation (platelets) | Kd (integrin αVβ3) [nM] | also measured |
| --- | --- | --- | --- | --- |
| thrombin |  |  |  | platelet activation in integrin β3 deficient mouse platelets [1]: still induces platelet activation |
| O=C(O)CN(CCOCCOCCN(CC(=O)O)CC(=O)O)CC(=O)O [EGTA] | completely inhibited; also recorded: completely blocks | completely inhibited |  |  |
| CCCCC[C@H](O)/C=C/[C@H]1[C@H](O)CC(=O)[C@@H]1CCCCCCC(=O)O [PGE1, prostaglandin E1] | partially inhibited | No significant inhibition |  | inhibition of CCL5-induced platelet activation (platelets; listed as prostaglandin E1 (PGE1)): partially blocks |
| COC(=O)[C@H](Cc1ccc([N+](=O)[O-])cc1)NC(=O)c1cccc2ccccc12 [SB328437] | completely inhibited | completely inhibited |  | inhibition of thrombin-induced platelet activation (platelets; SB328437 pre-treatment, FIG. 9 in β3−/− platelets): did not inhibit; also recorded: do not inhibit |
| vitronectin: integrin αVβ3 ligand, literature comparator |  |  | 64 |  |
| fibrinogen |  |  | 27 |  |
